Measured values from patent US12459951B2, “Compounds that interact with RAS superfamily proteins for treatment of cancers, inflammatory diseases, rasopathies, and fibrotic disease” (SHY Therapeutics, LLC, priority 2022, dated 2025).

How the values were obtained:
Erk1/2 phosphorylation = assay: Erk1/2 Phosphorylation Assay (western blot), Panc-1; format: cell-based, human; details: at 10 μM, * = activation
How it was run: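 KRas G12D Panc-1 cells were treated 6 h at 37° C with compound at 10 μM or serial dilutions for IC50 (0.3% DMSO). In method 1, cells were serum-starved overnight (0.5% FBS) and then given 1.5 ng/ml EGF for 15 min. In method 2, cells stayed in 10% FBS without stimulation. Lysate phospho-Erk1/2 (Thr202/Tyr204) was read by western blot.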

KRas G12D mutant = assay: Ras GTP Binding Domain Inhibition Assay (Ras Superfamily Assay); details: at 20 μM; for KRas G12D mutant + SOS: % inh.: with SOS; for KRas G12D mutant: % inh.: without SOS
How it was run: (§1)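 His-tagged GTPases immobilised on nickel-coated plates, pre-incubated with compound (20 μM single point, or serial dilution for IC50) 3 h at room temperature, with or without 10-30 μg/mL Sos (residues 556-1049) in the final hour. Bound Cy3- or Cy5-GTP (100 nM, 45 min) measured by fluorescence after washing.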

Rac-1 = target: T1, Rac-1 (Homo sapiens, UniProt P63000); assay: as above; details: read-out: Rac-1: % inh.
T1 construct: made in house
How it was run: as §1

KRas wild type = assay: as above; details: at 20 μM; for KRas wild type + SOS: % inh.: with SOS; for KRas wild type: % inh.: without SOS
How it was run: as §1

Row | SMILES | % inh of Erk1/2 phosphorylation in Panc-1 (Erk1/2 phosphorylation) | KRas G12D mutant + SOS: % inh. (KRas G12D mutant) | KRas G12D mutant: % inh. (KRas G12D mutant) | inhibition at 20 µM (Rac-1) [%] | KRas wild type + SOS: % inh. (KRas wild type) | KRas wild type: % inh. (KRas wild type)
1 | Cc1c(-c2ccn(C)n2)cn2nc(-c3nccn3C)nc(Nc3cc(C(F)(F)F)[nH]n3)c12 [Compound 259, 5-Methyl-2-(1-methyl-1H-imidazol-2-yl)-6-(1-methyl-1H-pyrazol-3-yl)-N-(5-(trifluoromethyl)-1H-pyrazol-3-yl)pyrrolo[2,1-f][1,2,4]triazin-4-amine] | A* (1-25% activation) | D (D = 76-100% inhibition) | C (C = 50-75% inhibition) | 76 to 100 | D (D = 76-100% inhibition) | C (C = 50-75% inhibition)
2 | Cc1c(-c2ccn(C)n2)cn2nc(-c3nccn3C)nc(Oc3cc(N)[nH]n3)c12 [Compound 262, 3-((5-Methyl-2-(1-methyl-1H-imidazol-2-yl)-6-(1-methyl-1H-pyrazol-3-yl)pyrrolo[2,1-f][1,2,4]triazin-4-yl)oxy)-1H-pyrazol-5-amine] | A (1-25% inhibition) | D (D = 76-100% inhibition) | D (D = 76-100% inhibition) | 50 to 75 | C (C = 50-75% inhibition) | B (B = 26-49% inhibition)
3 | Cc1c(-c2ccn(C)n2)cn2nc(-c3nccn3C)nc(Nc3cc(-c4cccnc4)[nH]n3)c12 [Compound 264, 5-Methyl-2-(1-methyl-1H-imidazol-2-yl)-6-(1-methyl-1H-pyrazol-3-yl)-N-(5-(pyridin-3-yl)-1H-pyrazol-3-yl)pyrrolo[2,1-f][1,2,4]triazin-4-amine] | B* (26-49% activation) | D (D = 76-100% inhibition) | C (C = 50-75% inhibition) | 76 to 100 | D (D = 76-100% inhibition) | C (C = 50-75% inhibition)
4 | COc1cccc(-c2cn3nc(-c4nccn4C)nc(N[C@H]4C[C@H](OC)C4)c3c2-c2ccccn2)c1C [Compound 274, 6-(3-Methoxy-2-methylphenyl)-N-((1r,3r)-3-methoxycyclobutyl)-2-(1-methyl-1H-imidazol-2-yl)-5-(pyridin-2-yl)pyrrolo[2,1-f][1,2,4]triazin-4-amine] | D (85-100% inhibition) | A (A = 1-25% inhibition) | B (B = 26-49% inhibition) | 0 | 0 (0 = 0% inhibition) | 0 (0 = 0% inhibition)
5 | Cc1cc(Nc2nc(-c3nccn3C)nn3cc(-c4ccn(C)n4)c(C)c23)n[nH]1 [Compound 255, 5-Methyl-2-(1-methyl-1H-imidazol-2-yl)-6-(1-methyl-1H-pyrazol-3-yl)-N-(5-methyl-1H-pyrazol-3-yl)pyrrolo[2,1-f][1,2,4]triazin-4-amine] | A (1-25% inhibition) | D (D = 76-100% inhibition) | D (D = 76-100% inhibition) | 76 to 100 | D (D = 76-100% inhibition) | 
6 | COc1cccc(-c2cn3nc(-c4nccn4C)nc(N[C@@H]4CC[C@H]4OC)c3c2-c2ccccc2)c1C (racemic) [Compound 272, rac 6-(3-Methoxy-2-methylphenyl)-N-((1R,2R)-2-methoxycyclobutyl)-2-(1-methyl-1H-imidazol-2-yl)-5-phenylpyrrolo[2,1-f][1,2,4]triazin-4-amine] | D (85-100% inhibition) | A (A = 1-25% inhibition) | C (C = 50-75% inhibition) | 1 to 25 | 0 (0 = 0% inhibition) | 0 (0 = 0% inhibition)
7 | Cc1c(-c2ccn(C)n2)cn2nc(-c3nccn3C)nc(Nc3cc(-n4ccnc4C)ccn3)c12 [Compound 246, 5-Methyl-N-(4-(2-methyl-1H-imidazol-1-yl)pyridin-2-yl)-2-(1-methyl-1H-imidazol-2-yl)-6-(1-methyl-1H-pyrazol-3-yl)pyrrolo[2,1-f][1,2,4]triazin-4-amine] | 0 (0% inhibition) | D (D = 76-100% inhibition) | D (D = 76-100% inhibition) | 76 to 100 | D (D = 76-100% inhibition) | D (D = 76-100% inhibition)
8 | Cc1c(-c2ccn(C)n2)cn2nc(-c3nccn3C)nc(Nc3cc(-c4ccccc4)[nH]n3)c12 [Compound 263, 5-Methyl-2-(1-methyl-1H-imidazol-2-yl)-6-(1-methyl-1H-pyrazol-3-yl)-N-(5-phenyl-1H-pyrazol-3-yl)pyrrolo[2,1-f][1,2,4]triazin-4-amine] | A (1-25% inhibition) | D (D = 76-100% inhibition) | D (D = 76-100% inhibition) | 76 to 100 | D (D = 76-100% inhibition) | C (C = 50-75% inhibition)
9 | Cc1[nH]nc(Nc2nc(-c3nccn3C)nn3cc(-c4ccn(C)n4)c(C)c23)c1C [Compound 267, N-(4,5-Dimethyl-1H-pyrazol-3-yl)-5-methyl-2-(1-methyl-1H-imidazol-2-yl)-6-(1-methyl-1H-pyrazol-3-yl)pyrrolo[2,1-f][1,2,4]triazin-4-amine] | D* (85-100% activation) | D (D = 76-100% inhibition) | D (D = 76-100% inhibition) | 76 to 100 | D (D = 76-100% inhibition) | D (D = 76-100% inhibition)
10 | COc1cc(Nc2nc(-c3nccn3C)nn3cc(-c4ccn(C)n4)c(C)c23)n[nH]1 [Compound 252, N-(5-Methoxy-1H-pyrazol-3-yl)-5-methyl-2-(1-methyl-1H-imidazol-2-yl)-6-(1-methyl-1H-pyrazol-3-yl)pyrrolo[2,1-f][1,2,4]triazin-4-amine] | A* (1-25% activation) | D (D = 76-100% inhibition) | D (D = 76-100% inhibition) | 76 to 100 | D (D = 76-100% inhibition) | C (C = 50-75% inhibition)
11 | Cc1c(-c2ccn(C)n2)cn2nc(-c3nccn3C)nc(Nc3cc(C(C)C)[nH]n3)c12 [Compound 268, N-(5-Isopropyl-1H-pyrazol-3-yl)-5-methyl-2-(1-methyl-1H-imidazol-2-yl)-6-(1-methyl-1H-pyrazol-3-yl)pyrrolo[2,1-f][1,2,4]triazin-4-amine] | D* (85-100% activation) | D (D = 76-100% inhibition) | C (C = 50-75% inhibition) | 76 to 100 | D (D = 76-100% inhibition) | C (C = 50-75% inhibition)
12 | Cc1c(-c2ccn(C)n2)cn2nc(-c3nccn3C)nc(N3CCc4cc(C(F)(F)F)cnc43)c12 [Compound 251, 5-Methyl-2-(1-methyl-1H-imidazol-2-yl)-6-(1-methyl-1H-pyrazol-3-yl)-4-(5-(trifluoromethyl)-2,3-dihydro-1H-pyrrolo[2,3-b]pyridin-1-yl)pyrrolo[2,1-f][1,2,4]triazine] | B (26-49% inhibition) | B (B = 26-49% inhibition) | C (C = 50-75% inhibition) | 26 to 49 | A (A = 1-25% inhibition) | B (B = 26-49% inhibition)
13 | COc1cc(Nc2nc(-c3nccn3C)nn3cc(-c4ccn(C)n4)c(C)c23)ncc1-n1cnc(C)c1 [Compound 244, N-(4-Methoxy-5-(4-methyl-1H-imidazol-1-yl)pyridin-2-yl)-5-methyl-2-(1-methyl-1H-imidazol-2-yl)-6-(1-methyl-1H-pyrazol-3-yl)pyrrolo[2,1-f][1,2,4]triazin-4-amine] | 0 (0% inhibition) | D (D = 76-100% inhibition) | D (D = 76-100% inhibition) | 76 to 100 | D (D = 76-100% inhibition) | C (C = 50-75% inhibition)
